{
  "source": "patent US20040009189A1",
  "about": "“Antimutagenic effects of ganoderma lucidum spores” (priority 2002, published 2004)",
  "key": {"[1]": {"test_system": "bone marrow cells of mice", "method": "Male NIH mice weighing 22-25 g, provided by the Guangdong Provincial Animal Center for Medical Experiments, were used. […] Each group contained 5 mice. Dosages were administered once a day for 3 consecutive days, orally via gavage.\nDistilled water was then added to adjust the suspension to the required concentration. The compound was orally administered through gavage at 0.4 ml/10 g of body weight. […] Twenty four (24) hours after the last administration the animals were sacrificed by dislocation of the cervical vertebra. The femur was then removed, the muscle stripped away, and the bone marrow flushed out using phosphate buffer, centrifuged, fixed hyponotically and the chromosome sample is prepared using methods routine in the art. It was then stained for 10 min using 10% Giemsa's stain (pH 6.8).\nWell dispersed Metaphase cells were selected for observation under the oil immersion lens. One hundred (100) metaphase cells were observed per animal, the number of cells with chromosomal aberrations noted, and the chromosomal aberration rate calculated. The data obtained were analyzed statistically calculated using SPSS for Windows 8.0 (t-test)."}, "[2]": {"test_system": "mice bone marrow cell chromosomal aberration induced by cyclophosphamide", "conditions": "500 cells", "source_text": "The test used was the modified mice bone marrow cell micronucleus test as specified in “A Notice Concerning Issuance of the Revised Items of the ‘Health Food Functional Assessment Procedures and Testing Methods’,” a document from the Ministry of Public Health of the People's Republic of China, which is hereby incorporated by reference.\nThe mice were randomly divided by weight into 9 groups, 5 males and 5 females respectively per group. Animals in each group were given the following treatment:\nThe drug was prepared as a suspension of the required concentration in distilled water, and administered orally through tube at individual dosages of 0.2 mL/10 g of body weight. The negative control group was given distilled water of the equivalent volume through tube once a day for 30 days continuously. […] 4 hours before the mice were sacrificed they are given colchicine, and the bone marrow was extracted in order to prepare the chromosome samples in the routine way.\nSamples from each group were observed. One hundred (100) metaphase cells per mouse were observed, and the chromosomal structures and the numbers of aberrations were recorded. Using SPSS for Windows 8.0 (t-test), a comparative analysis was made of the experimental data from the various dosage groups and the positive groups and tested to find out if there was any significant difference between the males and females within the group."}, "fetal rats [3]": {"test_system": "fetal rats", "assay": "Effects on early embryo development in pregnant rats", "format": "in vivo", "conditions": "aspirin 250 mg/kg oral, days 10-12 of pregnancy; 14 pregnant rats", "from_the_text": "(§1) To test the embryotoxicity and teratogenic effects of GASP, a rat model was used.\n(§2) Healthy SD rats weighing between 200-250 g were selected and housed together overnight at a 2:1 ratio of females to males. Beginning on the next day, vaginal smears were examined each morning, and the date when sperm was found was considered day 0 of pregnancy.\n(§3) The pregnant rats were randomly divided into 5 groups, 18 rats per group. […] The human clinical dose was four capsules per dose (each capsule containing 0.3 g of the GSAP), four times daily. The study was designed so that the low dose group was 428.6 mg/kg, medium dose group was 2143 mg/kg, and the high dose group was 4286 mg/kg (equivalent to 1, 5, and 10 times the human clinical dose, respectively, when calculated according to the respective body surface areas of the rat and human). During the 6-15 days of the pregnancy, the GASP was orally administered to the rats in the dosage groups at a volume of 1.5 ml/100 g through gavage. The positive control group was given aspirin (250 mg/kg) on days 10-12 of the pregnancy, at the volume of 1.0 ml/100 g orally by means of a stomach tube, while the negative control group was given the equivalent amount of distilled water orally through gavage.\nAll the pregnant rats were weighed once every 3 days, so as to adjust the dosage. On the day 20 of the pregnancy, the animals were sacrificed by dislocating the vertebra, and a cesarean was performed to obtain the fetal rats in order to check various indexes and for statistical analysis."}, "fetal rats [4]": {"test_system": "fetal rats", "assay": "Effects on fetal rat organogenesis (Bouins fixation, sectioning)", "set-up": "species or system Sprague Dawley (SD) rats", "conditions": "female, Sprague-Dawley, in vivo", "source_text": "Approximately ⅓ of the fetal rats were removed per litter, fixed with Bouins solution and then manually sectioned, with the various internal organs being then observed under the dissecting microscope."}, "[5]": {"assay": "Weight gain of the pregnant rats (embryotoxicity/teratogenicity study)", "format": "in vivo", "conditions": "days 10-12 of pregnancy", "from_the_text": "as §1, §2, §3\nAll the pregnant rats were weighed once every 3 days, so as to adjust the dosage. […]"}, "[6]": {"conditions": "positive control: cyclophosphamide 40 mg/kg oral, single administration, 500 cells counted"}, "[7]": {"conditions": "CP 40 mg/kg alone (positive group), F"}, "[8]": {"conditions": "CP 40 mg/kg alone (positive group), M"}, "[9]": {"conditions": "CP 50 mg/kg alone (positive group 4), F"}, "[10]": {"conditions": "CP 50 mg/kg alone (positive group 4), M"}},
  "note": "Read-outs that look alike come from different tables or passages of the source. Marks after values point to notes of the source that are not given here.",
  "data": [
    {"smiles": "O=P1(N(CCCl)CCCl)NCCCO1", "note": "(stereo not shown) [CP, cyclophosphamide]", "values": [
      {"measurement": "Chromosomal aberration rate vs negative control group", "setting": "[1]; CP 40 mg/kg, p<0.01", "value": "noticeably higher than that of the negative control group"},
      {"measurement": "Chromosomal Aberration Rate (%)", "setting": "[1]; [6]", "value": "25.0* %"},
      {"measurement": "No. aberrant cells", "setting": "[1]; [6]", "value": 115},
      {"measurement": "Type and Number of Aberration: I (chromosomal fragmentation)", "setting": "[1]; [6]", "value": 35},
      {"measurement": "Type and Number of Aberration: b (chromosomal breakage)", "setting": "[1]; [6]", "value": "b(48)"},
      {"measurement": "Type and Number of Aberration: f (chromosal fusion)", "setting": "[1]; [6]", "value": 59},
      {"measurement": "Abberant Cell Count", "setting": "[2]; [7]", "value": 118},
      {"measurement": "Abnormality Rate", "setting": "[2]; [7]", "value": 1.2},
      {"measurement": "Cell Aberration Rate %", "setting": "[2]; [7]", "value": 23.6, "unit": "%"},
      {"measurement": "No. of Abnormalities Polyploid", "setting": "[2]; [7]", "value": 5},
      {"measurement": "No. of Abnormalities hyperploid", "setting": "[2]; [7]", "value": 1},
      {"measurement": "No. of Abormal Cells", "setting": "[2]; [7]", "value": 6},
      {"measurement": "crb (chromatid break)", "setting": "[2]; [7]", "value": 95},
      {"measurement": "csb (chromosome break)", "setting": "[2]; [7]", "value": 28},
      {"measurement": "csg (chromosome gap)", "setting": "[2]; [7]", "value": 0},
      {"measurement": "ctg (chromatid gap)", "setting": "[2]; [7]", "value": 16},
      {"measurement": "del (nullisomic)", "setting": "[2]; [7]", "value": 50},
      {"measurement": "dmin (dimicrobody)", "setting": "[2]; [7]", "value": 0},
      {"measurement": "f (fragment)", "setting": "[2]; [7]", "value": 60},
      {"measurement": "r (ring chromosome)", "setting": "[2]; [7]", "value": 0},
      {"measurement": "tr (triradial)", "setting": "[2]; [7]", "value": 21},
      {"measurement": "Abberant Cell Count", "setting": "[2]; [8]", "value": 108},
      {"measurement": "Abnormality Rate", "setting": "[2]; [8]", "value": 1.8},
      {"measurement": "Cell Aberration Rate %", "setting": "[2]; [8]", "value": 21.6, "unit": "%"},
      {"measurement": "No. of Abnormalities Polyploid", "setting": "[2]; [8]", "value": 6},
      {"measurement": "No. of Abnormalities hyperploid", "setting": "[2]; [8]", "value": 1},
      {"measurement": "No. of Abormal Cells", "setting": "[2]; [8]", "value": 9},
      {"measurement": "crb (chromatid break)", "setting": "[2]; [8]", "value": 94},
      {"measurement": "csb (chromosome break)", "setting": "[2]; [8]", "value": 19},
      {"measurement": "csg (chromosome gap)", "setting": "[2]; [8]", "value": 0},
      {"measurement": "ctg (chromatid gap)", "setting": "[2]; [8]", "value": 18},
      {"measurement": "del (nullisomic)", "setting": "[2]; [8]", "value": 47},
      {"measurement": "dmin (dimicrobody)", "setting": "[2]; [8]", "value": 0},
      {"measurement": "f (fragment)", "setting": "[2]; [8]", "value": 62},
      {"measurement": "r (ring chromosome)", "setting": "[2]; [8]", "value": 0},
      {"measurement": "tr (triradial)", "setting": "[2]; [8]", "value": 15},
      {"measurement": "Abberant Cell Count", "setting": "[2]; [9]", "value": 221},
      {"measurement": "Abnormality Rate", "setting": "[2]; [9]", "value": 2.0},
      {"measurement": "No. of Abnormalities Polyploid", "setting": "[2]; [9]", "value": 5},
      {"measurement": "No. of Abnormalities hyperploid", "setting": "[2]; [9]", "value": 5},
      {"measurement": "No. of Abormal Cells", "setting": "[2]; [9]", "value": 10},
      {"measurement": "crb (chromatid break)", "setting": "[2]; [9]", "value": 185},
      {"measurement": "csb (chromosome break)", "setting": "[2]; [9]", "value": 21},
      {"measurement": "csg (chromosome gap)", "setting": "[2]; [9]", "value": 0},
      {"measurement": "ctg (chromatid gap)", "setting": "[2]; [9]", "value": 18},
      {"measurement": "del (nullisomic)", "setting": "[2]; [9]", "value": 103},
      {"measurement": "dmin (dimicrobody)", "setting": "[2]; [9]", "value": 0},
      {"measurement": "f (fragment)", "setting": "[2]; [9]", "value": 117},
      {"measurement": "r (ring chromosome)", "setting": "[2]; [9]", "value": 0},
      {"measurement": "tr (triradial)", "setting": "[2]; [9]", "value": 32},
      {"measurement": "Abberant Cell Count", "setting": "[2]; [10]", "value": 198},
      {"measurement": "Abnormality Rate", "setting": "[2]; [10]", "value": 2.2},
      {"measurement": "No. of Abnormalities Polyploid", "setting": "[2]; [10]", "value": 9},
      {"measurement": "No. of Abnormalities hyperploid", "setting": "[2]; [10]", "value": 2},
      {"measurement": "No. of Abormal Cells", "setting": "[2]; [10]", "value": 11},
      {"measurement": "crb (chromatid break)", "setting": "[2]; [10]", "value": 170},
      {"measurement": "csb (chromosome break)", "setting": "[2]; [10]", "value": 33},
      {"measurement": "csg (chromosome gap)", "setting": "[2]; [10]", "value": 0},
      {"measurement": "ctg (chromatid gap)", "setting": "[2]; [10]", "value": 18},
      {"measurement": "del (nullisomic)", "setting": "[2]; [10]", "value": 92},
      {"measurement": "dmin (dimicrobody)", "setting": "[2]; [10]", "value": 0},
      {"measurement": "f (fragment)", "setting": "[2]; [10]", "value": 100},
      {"measurement": "r (ring chromosome)", "setting": "[2]; [10]", "value": 1},
      {"measurement": "tr (triradial)", "setting": "[2]; [10]", "value": 29}
    ]},
    {"smiles": "CC(=O)Oc1ccccc1C(=O)O", "note": "[Aspirin, aspirin]", "values": [
      {"measurement": "Mean no. survivors per litter", "setting": "fetal rats [3]", "value": "4.0*"},
      {"measurement": "No. of litters with dead fetuses", "setting": "fetal rats [3]", "value": 5},
      {"measurement": "No. surviving fetus", "setting": "fetal rats [3]", "value": 56},
      {"measurement": "Number of hydrocephalic fetal rats", "setting": "fetal rats [4]", "value": 2},
      {"measurement": "Net Weight Gain", "setting": "[5]; aspirin 250 mg/kg oral", "value": "47.8 ± 13.9", "unit": "g"},
      {"measurement": "Net weight gain vs negative control group", "setting": "[5]; aspirin 250 mg/kg, p<0.05", "value": "significantly lower than that of the negative control group"}
    ]}
  ]
}
